How the values were obtained:
Type in all cases: in vivo
Descurainia sophia = experiment: Activity assay of compositions: post-emergence spray treatment of stems and leaves (F), fresh weight inhibition and combined effect (Gowing method); details: 21 d
Experimental: The required active ingredient B was purchased from a reagent company or a technical material manufacturer or synthesized by a conventional method. The technical materials were all dissolved with acetone solvents and diluted with aqueous solution of 0.1% Tween-80 emulsifier, which should be used immediately after dilution.
Descurainia sophia weeds were cultivated by a pot culture method. […] Weed seeds with plump and uniform grains were selected, treated with 30% hydrogen peroxide for 10 min, and accelerated to germinate at 15-20° C. in a biochemical incubator (in darkness). The weed seeds that had just germinated were evenly placed on the surface of the soil and then covered with 0.5-1 cm soil according to the sizes of seeds.
The culture was carried out in a controllable sunlight greenhouse at 20-30° C., in natural light, and with relative humidity of 57%-72%.
Each treatment was repeated 4 times. Three pots with 20 weed seeds sowed per pot were treated each time.
The agents were used once in total in the experiment. When at the stage of 1.5-2 leaves, the weeds were thinned out to maintain 10 weeds per pot. Thirty weeds were kept in each treatment, and then continued to be cultured until the 10-leaf stage for further treatment.
The well-cultured test materials were evenly placed on a platform with an area of 0.5 m^2, and foliage spraying was carried out by the 3WP-2000-type walking spray tower at a dosage of 450 kg/ha and a spray pressure of 0.3 MPa. After all the solution was sprayed, the air valve was closed, and 30 seconds later, the door of the spray tower was opened, and the nutritional bowl was taken out. Next, the air valve was opened, and the spray tube was cleaned by spraying 50 ml of water. The test materials were transferred to and routinely cultured in a greenhouse after the treatment.
A method for investigating absolute numbers was employed. Whole seedlings of survival weeds were cut off along the soil surface with a blade, and the fresh weight of the weeds was weighed using an analytical balance. For dead weeds, the fresh weight thereof was zero.
The investigation was performed 21 days after the treatment for once in total.
The theoretical fresh weight inhibition rate of a mixed combination of each treatment was calculated by the Gowing method (E0=X+Y−X*Y/100). Then compared with the measured inhibition rate (E), the type of the combined effect of the combination of the two on weeds was evaluated, which was a synergistic effect when E−E0>10%; an antagonistic effect when E−E0<−10%; an additional effect when −10%≤E−E0≤10%. An optimal ratio was determined according to factors such as the actual control effects, characteristics of herbicides, balance of the formulation, etc. In the formula, X represents the fresh weight inhibition rate of the active ingredient A in a dosage of P; Y represents the fresh weight inhibition rate of the active ingredient B in a dosage of Q. The statistical results are shown in Table 4.

[1] = system: monocotyledonous and dicotyledonous weeds; experiment: Pre-emergence test experiment (weeds); set-up: key: 9: completely dead; 8: growth control rate is greater than or equal to 90% and less than 100%; 7: growth control rate is greater than or equal to 80% and less than 90%; 6: growth control rate is greater than or equal to 70% and less than 80%; growth control rate is greater than or equal to 50% and less than 70%; 4: growth control rate is greater than or equal to 30% and less than 50%; growth control rate is greater than or equal to 20% and less than 30%; growth control rate is greater than or equal to 10% and less than 20%; growth control rate is less than 10%; 0: no effect; details: 15 g a.i./ha
major crops = experiment: Pre-emergence test experiment (crops); set-up: key: 9: completely dead; 8: growth control rate is greater than or equal to 90% and less than 100%; 7: growth control rate is greater than or equal to 80% and less than 90%; 6: growth control rate is greater than or equal to 70% and less than 80%; growth control rate is greater than or equal to 50% and less than 70%; 4: growth control rate is greater than or equal to 30% and less than 50%; growth control rate is greater than or equal to 20% and less than 30%; growth control rate is greater than or equal to 10% and less than 20%; growth control rate is less than 10%; 0: no effect; details: 15 g a.i./ha
Digitaria sanguinalis = experiment: Pre-emergence sealing experiment for water-seeding; set-up: key: 9: completely dead; 8: growth control rate is greater than or equal to 90% and less than 100%; 7: growth control rate is greater than or equal to 80% and less than 90%; 6: growth control rate is greater than or equal to 70% and less than 80%; growth control rate is greater than or equal to 50% and less than 70%; 4: growth control rate is greater than or equal to 30% and less than 50%; growth control rate is greater than or equal to 20% and less than 30%; growth control rate is greater than or equal to 10% and less than 20%; growth control rate is less than 10%; 0: no effect; details: 15 g a.i./ha, 15 days
From the text: (§1) The activity level criteria for plant damage (i.e., growth control rate) are as follows: • Level 9: completely dead; • Level 8: growth control rate is greater than or equal to 90% and less than 100%; • Level 7: growth control rate is greater than or equal to 80% and less than 90%; • Level 6: growth control rate is greater than or equal to 70% and less than 80%; • Level 5: growth control rate is greater than or equal to 50% and less than 70%; • Level 4: growth control rate is greater than or equal to 30% and less than 50%; • Level 3: growth control rate is greater than or equal to 20% and less than 30%; • Level 2: growth control rate is greater than or equal to 10% and less than 20%; • Level 1: growth control rate is less than 10%; • Level 0: no effect.
(§2) The seeds of Leptochloa chinensis, Digitaria sanguinalis, Monochoria vaginalis (sulfonylurea-resistant strain, collected from Hunan, China), Cyperus iria (sulfonylurea-resistant strain, collected from Jiangsu, China), Huaidao (rice cultivar), etc. were broadcasted on the surface of nutrition bowls filled with soil and fully covered by soil. The prepared nutrition bowls were then placed in a cultivation box, with water filled to a suitable height to keep the soil in the nutrition bowls moist. The test compounds of the present invention were individually dissolved with mixed solutions of acetone and Tween-80, then diluted into solution of a certain concentration using a certain amount of water and sprayed using a spray tower. The plants were placed on a greenhouse seedbed and cultured for 15 days, and the experimental results were then collected. The compounds were applied at 120, 60, 30 and 15 g a.i./ha in triplicate and the results were averaged. The effects were evaluated according to the above activity level criteria.

Cyperus iria = experiment: Pre-emergence sealing experiment for water-seeding; set-up: key: 9: completely dead; 8: growth control rate is greater than or equal to 90% and less than 100%; 7: growth control rate is greater than or equal to 80% and less than 90%; 6: growth control rate is greater than or equal to 70% and less than 80%; growth control rate is greater than or equal to 50% and less than 70%; 4: growth control rate is greater than or equal to 30% and less than 50%; growth control rate is greater than or equal to 20% and less than 30%; growth control rate is greater than or equal to 10% and less than 20%; growth control rate is less than 10%; 0: no effect; details: 15 g a.i./ha, 15 days, sulfonylurea-resistant strain
From the text: as §1, §2

Leptochloa chinensis = experiment: Pre-emergence sealing experiment for water-seeding; set-up: key: 9: completely dead; 8: growth control rate is greater than or equal to 90% and less than 100%; 7: growth control rate is greater than or equal to 80% and less than 90%; 6: growth control rate is greater than or equal to 70% and less than 80%; growth control rate is greater than or equal to 50% and less than 70%; 4: growth control rate is greater than or equal to 30% and less than 50%; growth control rate is greater than or equal to 20% and less than 30%; growth control rate is greater than or equal to 10% and less than 20%; growth control rate is less than 10%; 0: no effect; details: 15 g a.i./ha, 15 days
From the text: as §1, §2

Monochoria vaginalis = experiment: Pre-emergence sealing experiment for water-seeding; set-up: key: 9: completely dead; 8: growth control rate is greater than or equal to 90% and less than 100%; 7: growth control rate is greater than or equal to 80% and less than 90%; 6: growth control rate is greater than or equal to 70% and less than 80%; growth control rate is greater than or equal to 50% and less than 70%; 4: growth control rate is greater than or equal to 30% and less than 50%; growth control rate is greater than or equal to 20% and less than 30%; growth control rate is greater than or equal to 10% and less than 20%; growth control rate is less than 10%; 0: no effect; details: 15 g a.i./ha, 15 days, sulfonylurea-resistant strain
From the text: as §1, §2

Structure (SMILES): CCOC(=O)c1nc(-c2ccc(C(F)(F)F)c(OC)c2F)nc(N)c1OC
- Control effect of B applied alone in a corresponding dose (%) (Descurainia sophia; B 6 g a.i./ha): 26.8%
- Control effect of B applied alone in a corresponding dose (%) (Descurainia sophia; B 12 g a.i./ha): 37.7%

Structure (SMILES): C[N+](C)(C)CCO.O=C([O-])COc1ccc(Cl)cc1Cl [2,4-D-Choline]
- Control effect of B applied alone in a corresponding dose (%) (Descurainia sophia; B 150 g a.i./ha): 44.7%
- Control effect of B applied alone in a corresponding dose (%) (Descurainia sophia; B 300 g a.i./ha): 60.0%

Structure (SMILES): Cc1nn(C)cc1C(=O)Oc1c(C(=O)c2ccc(C(F)(F)F)cc2S(C)(=O)=O)c(C)nn1C [Bipyrazone]
- Control effect of B applied alone in a corresponding dose (%) (Descurainia sophia; B 15 g a.i./ha): 55.4%
- Control effect of B applied alone in a corresponding dose (%) (Descurainia sophia; B 30 g a.i./ha): 78.9%

Structure (SMILES): O=C(O)c1nc(Cl)ccc1Cl [Clopyralid]
- Control effect of B applied alone in a corresponding dose (%) (Descurainia sophia; B 30 g a.i./ha): 40.5%
- Control effect of B applied alone in a corresponding dose (%) (Descurainia sophia; B 60 g a.i./ha): 58.8%

Structure (SMILES): Cc1ccc(-n2cnc(C(F)(F)F)n2)nc1Oc1cccc(C(F)(F)F)c1 [Compound 8]
- Pre-emergence activity level (growth control rate) on Amaranthus retroflexus [1]: 9
- Pre-emergence activity level (growth control rate) on Descurainia sophia [1]: 9
- Pre-emergence activity level (growth control rate) on Digitaria sanguinalis [1]: 9
- Pre-emergence activity level (growth control rate) on Setaria viridis [1]: 9
- Pre-emergence activity level (growth control rate) on Solanum nigrum [1]: 9
- Pre-emergence activity level (growth control rate) on Veronica [1]: 9
- Pre-emergence plant damage level (growth control rate) on Corn (major crops): 0
- Pre-emergence plant damage level (growth control rate) on Cotton (major crops): 0
- Pre-emergence plant damage level (growth control rate) on Soybean (major crops): 0
- activity level (growth control rate, fresh weight), Digitaria sanguinalis (Digitaria sanguinalis): 9
- activity level (growth control rate, fresh weight), Cyperus iria (Cyperus iria): 9
- activity level (growth control rate, fresh weight), Leptochloa chinensis (Leptochloa chinensis): 9
- activity level (growth control rate, fresh weight), Monochoria vaginalis (Monochoria vaginalis): 9

Structure (SMILES): CCc1ccc(-n2cnc(C(F)(F)F)n2)nc1Oc1cccc(C(F)(F)F)c1 [Compound 16]
- Pre-emergence activity level (growth control rate) on Amaranthus retroflexus [1]: 9
- Pre-emergence activity level (growth control rate) on Descurainia sophia [1]: 9
- Pre-emergence activity level (growth control rate) on Digitaria sanguinalis [1]: 9
- Pre-emergence activity level (growth control rate) on Setaria viridis [1]: 9
- Pre-emergence activity level (growth control rate) on Solanum nigrum [1]: 9
- Pre-emergence activity level (growth control rate) on Veronica [1]: 9
- Pre-emergence plant damage level (growth control rate) on Corn (major crops): 0
- Pre-emergence plant damage level (growth control rate) on Cotton (major crops): 0
- Pre-emergence plant damage level (growth control rate) on Soybean (major crops): 0
- activity level (growth control rate, fresh weight), Digitaria sanguinalis (Digitaria sanguinalis): 9
- activity level (growth control rate, fresh weight), Cyperus iria (Cyperus iria): 9
- activity level (growth control rate, fresh weight), Leptochloa chinensis (Leptochloa chinensis): 9
- activity level (growth control rate, fresh weight), Monochoria vaginalis (Monochoria vaginalis): 9

Structure (SMILES): COc1c(Cl)ccc(Cl)c1C(=O)O [Dicamba]
- Control effect of B applied alone in a corresponding dose (%) (Descurainia sophia; B 37.5 g a.i./ha): 39.6%
- Control effect of B applied alone in a corresponding dose (%) (Descurainia sophia; B 75 g a.i./ha): 50.8%

Structure (SMILES): c1cc[n+]2c(c1)-c1cccc[n+]1CC2 [Diquat dibromide monohydrate]
- Control effect of B applied alone in a corresponding dose (%) (Descurainia sophia; B 60 g a.i./ha): 42.2%
- Control effect of B applied alone in a corresponding dose (%) (Descurainia sophia; B 120 g a.i./ha): 66.6%

Structure (SMILES): CP(=O)(O)CCC(N)C(=O)O (stereo not shown) [Glufosinate-ammonium]
- Control effect of B applied alone in a corresponding dose (%) (Descurainia sophia; B 60 g a.i./ha): 50.7%
- Control effect of B applied alone in a corresponding dose (%) (Descurainia sophia; B 120 g a.i./ha): 71.5%

Structure (SMILES): O=C(O)CNCP(=O)(O)O [Glyphosate]
- Control effect of B applied alone in a corresponding dose (%) (Descurainia sophia; B 75 g a.i./ha): 56.6%
- Control effect of B applied alone in a corresponding dose (%) (Descurainia sophia; B 150 g a.i./ha): 75.8%

Structure (SMILES): COC(=O)c1nc(-c2ccc(Cl)c(OC)c2F)cc(N)c1Cl [Halauxifen-methyl]
- Control effect of B applied alone in a corresponding dose (%) (Descurainia sophia; B 3 g a.i./ha): 42.0%
- Control effect of B applied alone in a corresponding dose (%) (Descurainia sophia; B 6 g a.i./ha): 67.4%

Structure (SMILES): C[n+]1ccc(-c2cc[n+](C)cc2)cc1 [Paraquat dichloride]
- Control effect of B applied alone in a corresponding dose (%) (Descurainia sophia; B 30 g a.i./ha): 46.9%
- Control effect of B applied alone in a corresponding dose (%) (Descurainia sophia; B 60 g a.i./ha): 68.0%
